Experimental data reported in patent US20110207691A1, “COBALAMIN COMPOSITIONS FOR THE TREATMENT OF CANCER” (BEBAAS, INC., priority 2006, published 2011).
Values joined by “and” are separate entries in the source; they are usually repeats but may differ in a detail not shown here. Identical values can stand only once.

Legend:
[1] = system: BD-MB231 breast cancer cells; test: Cell survival count after treatment, BD-MB231 breast cancer cells; assay type: cell-based; conditions: cultures grown for 48 hours, then counted
Procedure: Cell cultures were grown and maintained using standard protocols for the respective cell line. Suitable culturing methods are described in, for example, Cancer Cell Culture: Method and Protocols (Methods in Molecular Medicine) Langdon (Ed) Humana Press, 2003 and General Techniques of Cell Culture (Handbooks in Practical Animal Cell Biology) Harrison and Rae, Cambridge University Press, 2005. Cultures were grown for 48 hours and subsequently counted to determine the number surviving after treatment with hydroxycobalamin, methylcobalamin or adenosylcobalamin and the aforementioned cobalamin analogs in combination with a nitric oxide-cobalamin complex. Determination of cell survival can be accomplished using, for example, a hemocytometer and Trypan Blue staining. […] Total number of cells can be determined living and dead cells can be determined and treatments compared.

WM9 melanoma cells = conditions: cited from earlier work

Compound	number of surviving cells (mean) [1]	effect on WM9 melanoma cells (WM9 melanoma cells)
C/C1=C2/[N-][C@H]([C@H](CC(N)=O)[C@@]2(C)CCC(=O)NC[C@@H](C)OP(=O)([O-])O[C@H]2[C@@H](O)[C@@H](n3cnc4cc(C)c(C)cc43)O[C@@H]2CO)[C@]2(C)N=C(/C(C)=C3N=C(/C=C4N=C1[C@@H](CCC(N)=O)C\4(C)C)[C@@H](CCC(N)=O)[C@]\3(C)CC(N)=O)[C@@H](CCC(N)=O)[C@]2(C)CC(N)=O.[Co+3].[OH-] [hydroxycobalamin]	472 and 729 and 728	
nitrosylcobalamin		anti-proliferative effect
